Measurements as given in publication PMC6943619, “Synthesis and Pharmacological Evaluation of Hybrids Targeting Opioid and Neurokinin Receptors” (Molecules, 2019).
Read-outs that look alike come from different tables or passages of the source. Where a SMILES comes first, the peptide text is derived from it. Bridges are numbered along the chain shown (N, C = ends). [ ]: non-standard residue; d: D form. Nle = CCCC[C@H](N)C(=O)O

Columns and labels:
[1] = target: T1, human opioid receptor MOR (Homo sapiens, UniProt P35372); assay: Radioligand binding assay, displacement of [3H]DAMGO; conditions: displacement of [3H]DAMGO from membranes of CHO cells transfected with human MOR, 50 mM Tris/HCl pH 7.4, 0.5% BSA, peptidase inhibitors, 2 h at 25 °C, mean ± SEM, n ≥ 3
T1 construct: purchased PerkinElmer (Krakow, Poland); host or cells: CHO cell membranes
Experimental: (§1) A radioligand binding assay was performed to determine the opioid receptor (OR) binding affinities of the novel analogs using commercially available membranes of Chinese hamster ovary cells (CHO) transfected with human recombinant ORs. [^3H]DAMGO, [^3H]deltorphin-2, and [^3H]U-69593 were used as the radioligands for MOR, DOR, and KOR, respectively. Tyr-[D-Lys-Phe-Phe-Asp]NH2 (1) was used as a reference opioid compound. […] None of them acquired significant DOR affinity.
(§2) To determine the affinity of peptide analogs to respective receptors, competition binding experiments were performed, as described in detail elsewhere.
(§3) Commercial membranes of CHO cells stably expressing either human ORs or NK1 receptor were used. [^3H]DAMGO, [^3H]deltorphin-2, and [^3H]U-69593 were employed as the competing radioligands for MOR, DOR, and KOR, respectively, while [^3H][Sar^9, Met(O2)^11]SP was utilized for the NK1 receptor. Membranes were incubated in a 0.5 mL volume of 50 mM Tris/HCl (pH = 7.4), 0.5% bovine serum albumin (BSA), with a number of peptidase inhibitors (bacitracin, bestatin, captopril) and various concentrations of radioligands for 2 h at 25 °C. Nonspecific binding was assessed in the presence of […] naloxone for ORs or SP for NK1 receptor.
(§4) The pharmacological terminology adopted in this paper is consistent with International Union of Basic and Clinical Pharmacology (IUPHAR) recommendations. Concentration–response curves were analyzed by nonlinear regression using Graph Pad Prism 6.0 (La Jolla, CA, USA). […]. […] Concentration–response curves were fitted with the four-parameter logistic nonlinear regression model (1) Effect=baseline+Emax−baseline/1+10^logEC50−X·n where X is the agonist concentration and n is the Hill coefficient. Ligand efficacy was expressed as intrinsic activity (α) calculated as a ratio of the peptide Emax to the Emax of the standard agonist (Supplementary Materials, Figure S7). […]. All statistical analyses were performed using Graph Pad Prism 6.0 (La Jolla, CA, USA). Differences between groups were analyzed with one-way ANOVA and a post hoc multiple comparison by the Student–Newman–Keuls test. A probability level of 0.05 or smaller was used to indicate statistical significance.

[2] = target: T2, human opioid receptor DOR (Homo sapiens, UniProt P41143); assay: Radioligand binding assay, displacement of [3H]deltorphin-2; conditions: displacement of [3H]deltorphin-2 from membranes of CHO cells transfected with human DOR, 50 mM Tris/HCl pH 7.4, 0.5% BSA, peptidase inhibitors, 2 h at 25 °C, mean ± SEM, n ≥ 3
T2 construct: purchased PerkinElmer (Krakow, Poland); host or cells: CHO cell membranes
Experimental: A radioligand binding assay was performed to determine the opioid receptor (OR) binding affinities of the novel analogs using commercially available membranes of Chinese hamster ovary cells (CHO) transfected with human recombinant ORs. […] Tyr-[D-Lys-Phe-Phe-Asp]NH2 (1) was used as a reference opioid compound.
as §2
(§5) Commercial membranes of CHO cells stably expressing either human ORs or NK1 receptor were used. […] Membranes were incubated in a 0.5 mL volume of 50 mM Tris/HCl (pH = 7.4), 0.5% bovine serum albumin (BSA), with a number of peptidase inhibitors (bacitracin, bestatin, captopril) and various concentrations of radioligands for 2 h at 25 °C.
(§6) The pharmacological terminology adopted in this paper is consistent with International Union of Basic and Clinical Pharmacology (IUPHAR) recommendations. Concentration–response curves were analyzed by nonlinear regression using Graph Pad Prism 6.0 (La Jolla, CA, USA). […] Concentration–response curves were fitted with the four-parameter logistic nonlinear regression model (1) Effect=baseline+Emax−baseline/1+10^logEC50−X·n where X is the agonist concentration and n is the Hill coefficient. Ligand efficacy was expressed as intrinsic activity (α) calculated as a ratio of the peptide Emax to the Emax of the standard agonist (Supplementary Materials, Figure S7). […] All statistical analyses were performed using Graph Pad Prism 6.0 (La Jolla, CA, USA). Differences between groups were analyzed with one-way ANOVA and a post hoc multiple comparison by the Student–Newman–Keuls test. A probability level of 0.05 or smaller was used to indicate statistical significance.

[3] = target: T3, human opioid receptor KOR (Homo sapiens, UniProt P41145); assay: Radioligand binding assay, displacement of [3H]U-69593; conditions: displacement of [3H]U-69593 from membranes of CHO cells transfected with human KOR, 50 mM Tris/HCl pH 7.4, 0.5% BSA, peptidase inhibitors, 2 h at 25 °C, mean ± SEM, n ≥ 3
T3 construct: purchased PerkinElmer (Krakow, Poland); host or cells: CHO cell membranes
Experimental: as §1, §2, §3, §4

human MOR = target: T4, human MOR (Homo sapiens, UniProt P35372); assay: Calcium mobilization functional assay, agonist mode; assay type: cell-based; conditions: CHO cells co-expressing human MOR and Gαqi5, n = 5; for MOR α ± SEM: efficacy (intrinsic activity), Emax relative to EM-2, mean ± SEM; for EC50: Fluo-4 AM calcium signal, read-out: MOR pEC50 (CL95%) (converted)
T4 construct: expressed in transfected cells; host or cells: CHO cells (University of Ferrara), co-expressing Gαqi5

DOR = target: T5, DOR (Homo sapiens, UniProt P41143); assay: as above; assay type: cell-based; conditions: CHO cells co-expressing DOR and GαqG66Di5, n = 5; for EC50: read-out: DOR pEC50 (CL95%) (converted); for DOR α ± SEM: efficacy (intrinsic activity), Emax relative to DPDPE, mean ± SEM
T5 construct: expressed in transfected cells; host or cells: CHO cells (University of Ferrara), co-expressing GαqG66Di5

human KOR = target: T6, human KOR (Homo sapiens, UniProt P41145); assay: as above; assay type: cell-based; conditions: for KOR α ± SEM: efficacy (intrinsic activity), Emax relative to dynorphin A, mean ± SEM
T6 construct: expressed in transfected cells; host or cells: CHO cells (University of Ferrara), co-expressing Gαqi5

human NK1 [4] = target: T7, human NK1 (Homo sapiens, UniProt P25103); assay: Radioligand binding assay, displacement of [3H][Sar9, Met(O2)11]SP; parameters: purchased PerkinElmer (Krakow, Poland); host or cells: CHO cell membranes; conditions: displacement of [3H][Sar9, Met(O2)11]SP from membranes of CHO cells transfected with human NK1 receptor; 50 mM Tris/HCl pH 7.4, 0.5% BSA, peptidase inhibitors, 2 h at 25 °C; mean ± SEM, n ≥ 3; SEM
Experimental: The binding assay was also used to examine the affinity of the synthesized hybrids for NK1 in commercial membranes of CHO cells stably expressing human NK1.
as §2, §5, §6

human NK1 [5] = target: T7, human NK1; assay: Calcium mobilization functional assay, agonist mode, CHONK1 cells; assay type: cell-based; parameters: expressed in transfected cells; host or cells: CHO cells (gift of Prof. T. Costa, ISS, Rome); conditions: for NK1 α ± SEM: efficacy (intrinsic activity), Emax relative to SP
human NK1 [6] = target: T7, human NK1; assay: Calcium mobilization assay, inhibition response experiments against SP; assay type: cell-based; parameters: expressed in transfected cells; host or cells: CHO cells (gift of Prof. T. Costa, ISS, Rome)
Experimental: Following aspiration of the loading solution and a washing step, serial dilutions of peptide stock solutions were added.
as §6

[7] = CHO cells co-expressing human KOR and Gαqi5, n = 5
[8] = CHO cells co-expressing human KOR and Gαqi5, Fluo-4 AM calcium signal, n = 5, read-out: KOR pEC50 (CL95%) (converted)

T7 sequence (P25103 whole entry): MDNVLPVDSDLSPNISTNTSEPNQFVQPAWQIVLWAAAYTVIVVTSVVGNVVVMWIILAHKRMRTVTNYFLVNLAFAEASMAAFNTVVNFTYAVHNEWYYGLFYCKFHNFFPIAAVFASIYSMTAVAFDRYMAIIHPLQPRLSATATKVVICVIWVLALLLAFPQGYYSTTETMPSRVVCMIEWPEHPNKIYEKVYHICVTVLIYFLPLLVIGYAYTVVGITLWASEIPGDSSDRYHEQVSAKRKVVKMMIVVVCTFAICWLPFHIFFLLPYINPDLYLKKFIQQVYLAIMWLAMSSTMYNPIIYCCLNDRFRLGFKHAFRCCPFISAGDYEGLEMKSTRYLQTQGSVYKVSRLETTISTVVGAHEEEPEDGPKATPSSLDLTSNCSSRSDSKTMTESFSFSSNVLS
T3 sequence (P41145 whole entry): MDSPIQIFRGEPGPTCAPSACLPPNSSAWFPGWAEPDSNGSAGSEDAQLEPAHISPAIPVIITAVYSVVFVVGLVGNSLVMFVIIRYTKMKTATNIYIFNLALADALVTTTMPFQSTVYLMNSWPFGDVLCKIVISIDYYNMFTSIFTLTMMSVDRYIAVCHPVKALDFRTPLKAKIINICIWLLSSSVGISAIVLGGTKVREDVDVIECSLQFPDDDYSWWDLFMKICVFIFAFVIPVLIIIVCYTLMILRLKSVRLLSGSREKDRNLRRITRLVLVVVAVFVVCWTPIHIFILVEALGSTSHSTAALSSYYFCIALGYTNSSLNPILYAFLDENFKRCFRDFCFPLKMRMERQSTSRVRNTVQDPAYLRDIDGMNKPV
T6 sequence (P41145 whole entry): as above
T5 sequence (P41143 whole entry): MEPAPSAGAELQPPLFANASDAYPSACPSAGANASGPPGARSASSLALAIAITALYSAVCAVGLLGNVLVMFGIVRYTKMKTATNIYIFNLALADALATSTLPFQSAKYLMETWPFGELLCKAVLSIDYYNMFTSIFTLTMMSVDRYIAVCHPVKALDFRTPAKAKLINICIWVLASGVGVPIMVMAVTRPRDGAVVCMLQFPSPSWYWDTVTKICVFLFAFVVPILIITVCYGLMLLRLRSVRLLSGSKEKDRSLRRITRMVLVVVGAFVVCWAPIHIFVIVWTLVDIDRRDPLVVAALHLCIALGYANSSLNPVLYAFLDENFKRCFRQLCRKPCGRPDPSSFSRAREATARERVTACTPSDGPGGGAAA
T2 sequence (P41143 whole entry): as above
T1 sequence (P35372 whole entry): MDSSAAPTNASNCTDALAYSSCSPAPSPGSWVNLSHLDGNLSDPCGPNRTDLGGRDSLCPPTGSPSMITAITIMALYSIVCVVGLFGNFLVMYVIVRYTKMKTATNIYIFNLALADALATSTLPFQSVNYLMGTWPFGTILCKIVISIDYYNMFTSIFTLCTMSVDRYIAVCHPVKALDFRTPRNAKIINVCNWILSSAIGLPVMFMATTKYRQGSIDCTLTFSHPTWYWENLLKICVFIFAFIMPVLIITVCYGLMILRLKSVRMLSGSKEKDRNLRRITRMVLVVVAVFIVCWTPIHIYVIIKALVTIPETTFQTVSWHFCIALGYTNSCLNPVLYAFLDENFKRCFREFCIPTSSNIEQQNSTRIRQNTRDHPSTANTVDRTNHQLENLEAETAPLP
T4 sequence (P35372 whole entry): as above

SMILES | Ki [1] [nM] | Ki [2] [nM] | Ki [3] [nM] | MOR α ± SEM (human MOR; SEM) | EC50 (DOR; Fluo-4 AM calcium signal) [nM] | DOR α ± SEM (DOR; SEM) | EC50 (human KOR) [nM] | KOR α ± SEM (human KOR; [7]) | Ki (human NK1 [4]) [nM] | EC50 (human NK1 [5]) [nM] | NK1 α ± SEM (human NK1 [5]; CHONK1 cells, N = 5, SEM) | effect per se on intracellular calcium levels (tested as an agonist) (human NK1 [5]; CHONK1 cells, up to 10 µM) | EC50 (human MOR) [nM] | EC50 (human KOR; [8]) [nM] | MOR α ± SEM (human MOR) | DOR pEC50 (CL95%) (DOR; Fluo-4 AM calcium signal) | DOR α ± SEM (DOR) | NK1 pEC50 (CL95%) (human NK1 [5]; CHO cells expressing human NK1 (CHONK1), Fluo-4 AM calcium signal, N = 5) | NK1 α ± SEM (human NK1 [5]; CHONK1 cells, N = 5) | Kb (human NK1 [6]) [nM]
CSCC[C@H](NC(=O)[C@H](CC(C)C)NC(=O)CNC(=O)[C@H](Cc1ccccc1)NC(=O)[C@H](Cc1ccccc1)NC(=O)[C@@H]1CC(=O)NCCCC[C@@H](NC(=O)[C@@H](N)Cc2ccc(O)cc2)C(=O)N[C@@H](Cc2ccccc2)C(=O)N[C@@H](Cc2ccccc2)C(=O)N1)C(N)=O [compound 5, Tyr-[D-Lys-Phe-Phe-Asp]-Phe-Phe-Gly-Leu-Met-NH2] (H-Y[dK]FFDFFGLM-NH2; lactam 2-5) | 4.9 ± 0.34 | 96.6 ± 3.8 | 28.3 ± 1.71 | 0.86 ± 0.03 | 389 | 0.50 ± 0.01 | 67.6 | 0.64 ± 0.04 | 51.6 ± 4.2 | 15.8 | 1.11 ± 0.05 | – | – | – | – | – | – | – | – | –
C[C@@H](O[C@H]1OCCN(Cc2n[nH]c(=O)[nH]2)[C@H]1c1ccc(F)cc1)c1cc(C(F)(F)F)cc(C(F)(F)F)c1 [aprepitant, reference compound] | – | – | – | – | – | – | – | – | – | – | – | did not modify | – | – | – | – | – | – | – | –
CSCC[C@H](NC(=O)[C@H](CC(C)C)NC(=O)CNC(=O)[C@H](Cc1ccccc1)NC(=O)[C@@H]1CC(=O)NCCCC[C@@H](NC(=O)[C@@H](N)Cc2ccc(O)cc2)C(=O)N[C@@H](Cc2ccccc2)C(=O)N[C@@H](Cc2ccccc2)C(=O)N1)C(N)=O [compound 6, Tyr-[D-Lys-Phe-Phe-Asp]-Phe-Gly-Leu-Met-NH2] (H-Y[dK]FFDFGLM-NH2; lactam 2-5) | 2.98 ± 0.14 | 28.7 ± 1.01 | 2.7 ± 0.12 | 0.81 ± 0.05 | 151 | 0.65 ± 0.05 | – | 0.92 ± 0.02 | 2330 ± 189 | 776 | 1.03 ± 0.05 | – | 9.12 | 4.68 | – | – | – | – | – | –
CSCC[C@H](NC(=O)[C@H](CC(C)C)NC(=O)CNC(=O)[C@@H]1CC(=O)NCCCC[C@@H](NC(=O)[C@@H](N)Cc2ccc(O)cc2)C(=O)N[C@@H](Cc2ccccc2)C(=O)N[C@@H](Cc2ccccc2)C(=O)N1)C(N)=O [compound 7, Tyr-[D-Lys-Phe-Phe-Asp]-Gly-Leu-Met-NH2] (H-Y[dK]FFDGLM-NH2; lactam 2-5) | 1.14 ± 0.21 | 113 ± 4.6 | 0.89 ± 0.04 | 0.85 ± 0.05 | 363 | 0.38 ± 0.04 | – | 1.06 ± 0.06 | 8130 ± 724 | 2090 | 0.99 ± 0.08 | – | 2.04 | 1.58 | – | – | – | – | – | –
CCCC[C@H](NC(=O)[C@H](CC(C)C)NC(=O)[C@@H](Cc1c[nH]c2ccccc12)NC(=O)[C@H](Cc1ccccc1)NC(=O)[C@@H](Cc1c[nH]c2ccccc12)NC(=O)[C@@H]1CC(=O)NCCCC[C@@H](NC(=O)[C@@H](N)Cc2ccc(O)cc2)C(=O)N[C@@H](Cc2ccccc2)C(=O)N[C@@H](Cc2ccccc2)C(=O)N1)C(N)=O [compound 3, Tyr-[D-Lys-Phe-Phe-Asp]-D-Trp-Phe-D-Trp-Leu-Nle-NH2] (H-Y[dK]FFD[dW]F[dW]L[Nle]-NH2; lactam 2-5) | 28.2 ± 1.45 | 213 ± 6.31 | 2.85 ± 0.44 | 0.72 ± 0.04 | – | – | – | 1.05 ± 0.05 | 12.8 ± 0.92 | – | – | – | 174 | 3.55 | 0.72 | Crc incomplete | Crc incomplete | Inactive | Inactive | 23.4
